Assays:
Relaxin-3 receptor 1 [1] = target: T1, Relaxin-3 receptor 1 (Homo sapiens, UniProt Q9NSD7); experiment: Negative allosteric modulation of human RXFP3 receptor expressed in CHO-K1 cell membrane assessed as inhibition of relaxin-3-induced stimulation of [35S]GTPgammaS binding followed by relaxin-3 addition and measured after 1 hr; assay type: functional, cell membranes
T1 sequence (Q9NSD7 whole entry): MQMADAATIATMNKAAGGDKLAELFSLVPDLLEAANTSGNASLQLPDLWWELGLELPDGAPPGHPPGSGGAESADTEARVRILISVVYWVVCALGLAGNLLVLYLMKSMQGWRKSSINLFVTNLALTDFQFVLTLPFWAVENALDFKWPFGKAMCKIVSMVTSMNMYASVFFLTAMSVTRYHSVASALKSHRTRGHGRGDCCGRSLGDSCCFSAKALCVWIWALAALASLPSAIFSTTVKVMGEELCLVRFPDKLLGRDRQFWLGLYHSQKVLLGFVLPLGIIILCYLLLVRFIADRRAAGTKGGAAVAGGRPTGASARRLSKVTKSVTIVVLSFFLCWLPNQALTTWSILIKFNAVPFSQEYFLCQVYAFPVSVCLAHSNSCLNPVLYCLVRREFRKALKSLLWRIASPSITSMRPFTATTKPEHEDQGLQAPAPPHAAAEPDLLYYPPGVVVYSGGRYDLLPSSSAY

[2] = Half life in female Wistar rat plasma at 10 mg/kg, ip administrated as single dose and measured 24 hrs post dose by LC-MS/MS analysis; assay type: ADME, organism-based; settings: in vivo
[3] = AUClast in female Wistar rat plasma at 10 mg/kg, ip administrated as single dose and measured 24 hrs post dose by LC-MS/MS analysis; assay type: ADME, organism-based
[4] = Cmax in female Wistar rat brain at 10 mg/kg, ip measured 24 hrs post dose by LC-MS/MS analysis; assay type: ADME, organism-based
[5] = Metabolic stability in rat liver microsomes assessed as clearance measured up to 45 mins by LC-MS/MS analysis; assay type: ADME, Microsome; settings: 0.75 h
[6] = AUClast in male Wistar rat plasma at 10 mg/kg, ip administrated as single dose and measured 24 hrs post dose by LC-MS/MS analysis; assay type: ADME, organism-based
[7] = Brain concentration in female Wistar rat at 10 mg/kg, ip measured after 24 hrs; assay type: ADME, organism-based; settings: in vivo
[8] = Cmax in female Wistar rat plasma at 10 mg/kg, ip administrated as single dose and measured 24 hrs post dose by LC-MS/MS analysis; assay type: ADME, organism-based; settings: in vivo
[9] = Half life in male Wistar rat plasma at 10 mg/kg, ip administrated as single dose and measured 24 hrs post dose by LC-MS/MS analysis; assay type: ADME, organism-based; settings: in vivo
[10] = Tmax in male Wistar rat plasma at 10 mg/kg, ip administrated as single dose and measured 24 hrs post dose by LC-MS/MS analysis; assay type: ADME, organism-based; settings: in vivo
[11] = Clearance in female Wistar rat plasma at 10 mg/kg, ip administrated as single dose and measured 24 hrs post dose by LC-MS/MS analysis; assay type: ADME, organism-based
[12] = Brain concentration in male Wistar rat at 10 mg/kg, ip measured after 24 hrs; assay type: ADME, organism-based; settings: in vivo
[13] = Cmax in male Wistar rat plasma at 10 mg/kg, ip administrated as single dose and measured 24 hrs post dose by LC-MS/MS analysis; assay type: ADME, organism-based; settings: in vivo
Relaxin-3 receptor 2 = Relaxin-3 receptor 2 (Homo sapiens, UniProt Q8TDU9); experiment: Negative allosteric modulation of human RXFP4 receptor expressed in CHO-K1 cells assessed as cAMP accumulation incubated for 30 mins by TR-FRET assay; assay type: functional, cell-based
[14] = AUClast in female Wistar rat brain at 10 mg/kg, ip measured 24 hrs post dose by LC-MS/MS analysis; assay type: ADME, organism-based
[15] = Kinetic solubility of compound in PBS at pH 7.4 incubated under agitation for 2 hrs by LC-MS/MS analysis; assay type: physicochemical
[16] = Plasma protein binding in Wistar rat at 1 uM incubated for 6 hrs by LC-MS/MS analysis; assay type: ADME, cell-free
[17] = Clearance in male Wistar rat plasma at 10 mg/kg, ip administrated as single dose and measured 24 hrs post dose by LC-MS/MS analysis; assay type: ADME, organism-based
Relaxin receptor 1 = target: T2, Relaxin receptor 1 (Homo sapiens, UniProt Q9HBX9); experiment: Negative allosteric modulation of human RXFP1 receptor expressed in CHO-K1 cells assessed as cAMP accumulation incubated for 30 mins by TR-FRET assay; assay type: functional, cell-based
T2 sequence (Q9HBX9 whole entry): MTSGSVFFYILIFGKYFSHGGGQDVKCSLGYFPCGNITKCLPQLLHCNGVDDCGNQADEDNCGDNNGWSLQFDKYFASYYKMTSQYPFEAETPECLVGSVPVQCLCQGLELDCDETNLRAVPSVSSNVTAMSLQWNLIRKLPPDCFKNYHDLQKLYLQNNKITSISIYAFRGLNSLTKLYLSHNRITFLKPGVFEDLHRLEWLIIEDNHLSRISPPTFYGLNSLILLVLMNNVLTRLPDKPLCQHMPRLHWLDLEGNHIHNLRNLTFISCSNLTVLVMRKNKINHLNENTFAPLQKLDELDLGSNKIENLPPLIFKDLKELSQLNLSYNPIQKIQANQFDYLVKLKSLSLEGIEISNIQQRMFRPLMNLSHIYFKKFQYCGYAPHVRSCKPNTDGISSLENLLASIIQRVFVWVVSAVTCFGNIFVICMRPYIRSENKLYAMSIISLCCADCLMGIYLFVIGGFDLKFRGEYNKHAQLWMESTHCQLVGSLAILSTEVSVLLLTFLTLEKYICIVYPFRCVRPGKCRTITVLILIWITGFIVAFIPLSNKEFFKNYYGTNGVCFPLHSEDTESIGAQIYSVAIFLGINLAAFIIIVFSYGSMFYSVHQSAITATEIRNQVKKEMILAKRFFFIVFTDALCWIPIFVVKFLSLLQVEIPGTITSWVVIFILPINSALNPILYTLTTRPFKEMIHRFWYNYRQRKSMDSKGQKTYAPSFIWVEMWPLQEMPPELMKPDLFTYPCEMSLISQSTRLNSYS

[18] = Tmax in male Wistar rat brain at 10 mg/kg, ip measured 24 hrs post dose by LC-MS/MS analysis; assay type: ADME, organism-based; settings: in vivo
[19] = Metabolic stability in rat liver microsomes assessed as half life measured up to 45 mins by LC-MS/MS analysis; assay type: ADME, Microsome
[20] = AUClast in male Wistar rat brain at 10 mg/kg, ip measured 24 hrs post dose by LC-MS/MS analysis; assay type: ADME, organism-based
[21] = Apparent permeability of compound across basolateral to apical side in MDCK-MDR1 cells at 10 uM incubated for 30 to 90 mins; assay type: ADME, cell-based, Canis lupus familiaris; settings: dog
[22] = Cmax in male Wistar rat brain at 10 mg/kg, ip measured 24 hrs post dose by LC-MS/MS analysis; assay type: ADME, organism-based
[23] = Tmax in female Wistar rat plasma at 10 mg/kg, ip administrated as single dose and measured 24 hrs post dose by LC-MS/MS analysis; assay type: ADME, organism-based; settings: in vivo
[24] = Apparent permeability compound across apical to basolateral side in MDCK-MDR1 cells at 10 uM incubated for 30 to 90 mins; assay type: ADME, cell-based, Canis lupus familiaris; settings: dog
[25] = Tmax in female Wistar rat brain at 10 mg/kg, ip measured 24 hrs post dose by LC-MS/MS analysis; assay type: ADME, organism-based; settings: in vivo
[26] = Efflux ratio of apparent permeability across basolateral to apical over apical to basolateral side in MDCK-MDR1 cells at 10 uM incubated for 30 to 90 mins; assay type: ADME, cell-based, Canis lupus familiaris; settings: dog, time 30-90 min
Relaxin-3 receptor 1 [27] = target: T1, Relaxin-3 receptor 1; experiment: Negative allosteric modulation of human RXFP3 receptor expressed in CHO-K1 cells assessed as cAMP accumulation incubated for 30 mins in presence of forskolin by TR-FRET assay; assay type: functional, cell-based
[28] = mdck-mdr1, 10 µM, time 30-90 min

Sequence of Relaxin-3 receptor 2 (Q8TDU9 whole entry): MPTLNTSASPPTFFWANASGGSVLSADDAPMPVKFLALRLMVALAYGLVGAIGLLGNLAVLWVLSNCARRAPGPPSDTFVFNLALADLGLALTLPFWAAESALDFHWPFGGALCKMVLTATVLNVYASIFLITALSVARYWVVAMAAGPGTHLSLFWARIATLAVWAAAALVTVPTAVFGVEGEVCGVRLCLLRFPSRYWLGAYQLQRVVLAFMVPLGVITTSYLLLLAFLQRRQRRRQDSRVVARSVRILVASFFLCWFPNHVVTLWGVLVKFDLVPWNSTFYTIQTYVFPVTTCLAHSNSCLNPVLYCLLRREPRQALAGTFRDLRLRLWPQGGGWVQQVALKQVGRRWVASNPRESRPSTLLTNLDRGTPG

SMILES: O=C(Nc1ccc(-c2nc(-c3ccc(Cl)cc3)no2)cc1)C1CC(=O)N(CC2CCCCN2)C1 (racemic)
- IC50 (Relaxin-3 receptor 1 [1]): 960 nM

SMILES: CNCCCN1CC(C(=O)Nc2ccc(-c3nc(-c4ccc(Cl)cc4)no3)cc2)CC1=O (stereo not given)
- IC50 (Relaxin-3 receptor 1 [1]): 1180 nM

SMILES: O=C(Nc1ccc(-c2nc(-c3ccc(Cl)cc3)no2)cc1)[C@@H]1CC(=O)N(C[C@@H]2CCCNC2)C1
- t1/2 [2]: 10 h
- AUC(0-t) at 24 h [3]: 8130 ng·h/mL
- Cmax [4]: 157 ng/mL
- CLH [5]: 6.8 µL/min/mg
- AUC(0-t) at 24 h [6]: 7370 ng·h/mL
- Drug uptake [7]: Active
- Cmax [8]: 2117 ng/mL
- t1/2 [9]: 12 h
- Tmax [10]: 0.5 h
- CL/F [11]: 18 mL/min/kg
- Drug uptake [12]: Active
- Cmax [13]: 2121 ng/mL
- IC50 (Relaxin-3 receptor 2): > 100000 nM
- AUC(0-t) at 24 h [14]: 1930 ng·h/mL
- Kinetic_solubility ([15]; buffer, pH 7.4, 2 h): 10.1 µM
- PPB [16]: 98%
- CL/F [17]: 18 mL/min/kg
- IC50 (Relaxin receptor 1): > 100000 nM
- Tmax [18]: 1 h
- t1/2 ([19]; microsomes, 0.75 h): 3.42 h
- AUC(0-t) at 24 h [20]: 3270 ng·h/mL
- Papp [21, 28]: 3.1 10^-6 cm/s
- Cmax [22]: 185 ng/mL
- Tmax [23]: 0.5 h
- Papp [24, 28]: 1.1 10^-6 cm/s
- Tmax [25]: 2 h

SMILES: CNCC(=O)Nc1ccc(-c2nc(-c3ccc(Cl)cc3)no2)cc1
- IC50 (Relaxin-3 receptor 1 [1]): 2630 nM

SMILES: NCCN1CC(C(=O)Nc2ccc(-c3nc(-c4ccc(Cl)cc4)no3)cc2)CC1=O (stereo not given)
- IC50 (Relaxin-3 receptor 1 [1]): 1450 nM

SMILES: O=C(Nc1ccc(-c2nc(-c3ccc(Cl)cc3)no2)cc1)C1CC(=O)N(Cc2ccco2)C1 (stereo not given)
- CLH [5]: 132 µL/min/mg
- efflux ratio at 10 µM [26]: 1
- IC50 (Relaxin-3 receptor 1 [27]; cho-k1): 2360 nM
- solubility kinetic at 2 h ([15]; PBS, pH 7.4, read-out: Kinetic_solubility): < 1 µM
- IC50 (Relaxin-3 receptor 1 [1]): 3020 nM
- half-life ([19]; liver microsomes): 0.177 h
- Papp B→A at 10 µM ([21]; MDCK-MDR1, time 30-90 min): 1.3 ×10⁻⁶ cm/s
- Papp A→B at 10 µM ([24]; MDCK-MDR1, time 30-90 min): 1.3 ×10⁻⁶ cm/s

SMILES: O=C(Nc1ccc(-c2nc(-c3ccc(Cl)cc3)no2)cc1)C1CC(=O)N(Cc2cccnc2)C1 (stereo not given)
- IC50 (Relaxin-3 receptor 1 [1]): 2630 nM

SMILES: CNCCCC(=O)Nc1ccc(-c2nc(-c3ccc(Cl)cc3)no2)cc1
- IC50 (Relaxin-3 receptor 1 [1]): 2090 nM

SMILES: O=C(Nc1ccc(-c2nc(-c3ccc(Cl)cc3)no2)cc1)C1CC(=O)N(CC2CCNC2)C1 (racemic)
- IC50 (Relaxin-3 receptor 1 [1]): 1700 nM

SMILES: O=C(Nc1ccc(-c2nc(-c3ccc(Cl)cc3)no2)cc1)C1CC(=O)N(CC2CCNCC2)C1 (stereo not given)
- IC50 (Relaxin-3 receptor 1 [1]): 710 nM

SMILES: CNCCC(=O)Nc1ccc(-c2nc(-c3ccc(Cl)cc3)no2)cc1
- IC50 (Relaxin-3 receptor 1 [27]): 590 nM
- IC50 (Relaxin-3 receptor 2): 4870 nM
- IC50 (Relaxin receptor 1): 19600 nM
- IC50 (Relaxin-3 receptor 1 [1]): 1050 nM

SMILES: CNCCN1CCC(C(=O)Nc2ccc(-c3nc(-c4ccc(Cl)cc4)no3)cc2)CC1
- IC50 (Relaxin-3 receptor 2): 14300 nM
- IC50 (Relaxin receptor 1): > 100000 nM

SMILES: CNCCN1CC(C(=O)Nc2ccc(-c3nc(-c4ccc(Cl)cc4)no3)cc2)CC1=O (stereo not given)
- IC50 (Relaxin-3 receptor 2): 34300 nM
- IC50 (Relaxin receptor 1): > 100000 nM

Reference: ChEMBL document CHEMBL6109135, “Development of Diphenyl-1,2,4-Oxadiazole Analogues as Allosteric Modulators of the RXFP3 Receptor: Evaluation of Importance of the N-Substituted-2-Pyrrolidone Moiety in RLX-33” (J Med Chem, 2025)
